Laboratory results published in US5654398A, “Compositions and methods for inhibiting replication of human immunodeficiency virus-1” (priority 1993, dated 1997).
Entries after “also recorded” stand apart in the source; their conditions may differ. Residues, ends and D or L forms follow the SMILES beside them.

Experiments:
mutant (C46-G74) IIB RNA = type: binding, HIV-1; details: for Kd: read-out: Knonsp (apparent Kd, mutant IIB RNA)
Description: (§1) Gel shift assays were performed at 4° C. unless described otherwise. Peptide and RNA were incubated together for 15 min on ice in 10 μl binding reactions containing 10 mM HEPES-KOH, pH 7.5, 100 mM KCl, 1 mM MgCl2, 0.5 mM EDTA, 1 mM dithithreitol, 50 μg/ml E. coli tRNA, and 10% glycerol. To determine relative binding affinities, 0.5 nM radiolabeled IIB RNA (or IIB mutant) was titrated with peptide. Peptide-RNA complexes were resolved in 10% polyacrylamide, 0.5x TBE gels that had been prerun for 1 hr and allowed to cool to 4° C. Gels were electrophoresed at 220 V for 3 hr at 4° C., dried, and autoradiographed.
(§2) FIG. 3C. Relationship between helix content of the Rev34-50 peptides and RNA-binding specificity. Apparent Kd s (the peptide concentration at which 50% of the RNA was shifted) were determined for wild-type (specific; Ksp) and mutant (nonspecific; Knonsp) IIB RNAs from the date in FIGS. 3A and 3B. Specificity, the ratio of specific to nonspecific apparent association constants (Ka s) is plotted against the helix content for each peptide, determined from the CD ellipticity at 222 nm (Chen et al., (1974) "Determination of the Helix and Beta Form of Proteins in Aqueous Solution by Circular Dichroism" Biochemistry 13:3350-3359 ) Peptide I: helix=0.1%; ksp =2000 nM; Knonsp =3000 nM. Peptide II: helix=3.9%; Ksp =300 nM; Knonsp =2000 nM. Peptide III: helix=10.9%; Ksp =100 nM; Knonsp =2000 nM. Peptide IV: helix=27.9%; Ksp =40 nM; Knonsp =2000 nM. Peptide V: helix=51.2%; Ksp =20 nM; Knonsp 1500 nM.

wild-type RRE IIB RNA = type: binding, HIV-1; details: for Kd: read-out: Ksp (apparent Kd, wild-type IIB RNA)
Description: as §1, §2

[1] = Circular dichroism, α-helix content; type: physicochemical; details: for % Helix (α-helix content): from CD ellipticity at 222 nm, 4° C., pH 7.5
Description: CD spectra were measured using an Aviv model 62DS spectropolarimeter. Samples were prepared in 10 mM potassium phosphate buffer, pH 7.5 and 100 mM KF, and temperature was maintained at 4° C. unless described otherwise. Spectra were recorded from 320 nm to 190 nm using a 1 cm pathlength cuvette and the signal was averaged for 10 sec. Scans were repeated five times and averaged. Peptide concentrations were typically 5-20 μM and ellipticity was calculated per amino acid residue.
as §2

[2] = test system: IIB RNA mutant A71 (G71 to A71); assay: RNA-binding gel shift assay, A71 mutant IIB RNA; design: species or system HIV-1; details: in the presence of tRNA
Description: as §1
(§3) FIG. 1B. Peptide binding to IIB mutants. Binding reactions were carried out in the presence of tRNA at the peptide concentrations indicated, and free RNA and peptide-RNA complexes were resolved by the gel shift assay. Each pair of lanes corresponds to RNA alone and peptide-RNA binding reactions. […]. The wild-type lanes on both sides of the gel are identical. The slower mobility of the A71 mutant in the absence of peptide may indicate that its unbound conformation is different than wild-type IIB. […] This phenomenon has been seen with other mutant RNAs and with mutant Rev peptides, and has been interpreted as differences in RNA conformation between specific and nonspecific complexes (Kjems et al. (1992), supra).

[3] = test system: IIB RNA mutant A47 (G47 to A47); assay: RNA-binding gel shift assay, A47 mutant IIB RNA; design: species or system HIV-1; details: in the presence of tRNA
Description: as §1, §3

Row | Structure (SMILES) | Kd (mutant (C46-G74) IIB RNA) [µM] | Kd (wild-type RRE IIB RNA) [µM] | % Helix (α-helix content) [1] [%] | % Helix (α-helix content) ([1]; listed as N-Rev34-50 --am) | specific RNA binding / discrimination between wild-type and mutant IIB RNAs (in words) (wild-type RRE IIB RNA) | α-helix content by CD (in words) ([1]; CD spectra) | Reduction of affinity compared to wild-type IIB (mutant (C46-G74) IIB RNA; C46-G74 base pair mutant, in the presence of tRNA) | Reduction of affinity compared to wild-type IIB [2] | Reduction of affinity compared to wild-type IIB [3]
1 | C[C@H](NC(=O)[C@H](CCC(N)=O)NC(=O)[C@H](CCCNC(=N)N)NC(=O)[C@@H](N)[C@@H](C)O)C(=O)N[C@@H](CCCNC(=N)N)C(=O)N[C@@H](CCCNC(=N)N)C(=O)N[C@@H](CC(N)=O)C(=O)N[C@@H](CCCNC(=N)N)C(=O)N[C@@H](CCCNC(=N)N)C(=O)N[C@@H](CCCNC(=N)N)C(=O)N[C@@H](CCCNC(=N)N)C(=O)N[C@@H](Cc1c[nH]c2ccccc12)C(=O)N[C@@H](CCCNC(=N)N)C(=O)N[C@@H](CCC(=O)O)C(=O)N[C@@H](CCCNC(=N)N)C(=O)N[C@@H](CCC(N)=O)C(=O)N[C@@H](CCCNC(=N)N)C(N)=O [Peptide II, N-Rev34-50 --am] (H-TRQARRNRRRRWRERQR-NH2) | 2 | 0.3 | 3.9 | approximately 4% | – | – | – | – | –
2 | CC(=O)N[C@H](C(=O)N[C@@H](CCCNC(=N)N)C(=O)N[C@@H](CCC(N)=O)C(=O)N[C@@H](C)C(=O)N[C@@H](CCCNC(=N)N)C(=O)N[C@@H](CCCNC(=N)N)C(=O)N[C@@H](CC(N)=O)C(=O)N[C@@H](CCCNC(=N)N)C(=O)N[C@@H](CCCNC(=N)N)C(=O)N[C@@H](CCCNC(=N)N)C(=O)N[C@@H](CCCNC(=N)N)C(=O)N[C@@H](Cc1c[nH]c2ccccc12)C(=O)N[C@@H](CCCNC(=N)N)C(=O)N[C@@H](CCC(=O)O)C(=O)N[C@@H](CCCNC(=N)N)C(=O)N[C@@H](CCC(N)=O)C(=O)N[C@@H](CCCNC(=N)N)C(N)=O)[C@@H](C)O [Peptide III] (Ac-TRQARRNRRRRWRERQR-NH2) | 2 | 0.1 | 10.9 | – | – | – | – | – | –
3 | C[C@H](NC(=O)[C@H](CCC(N)=O)NC(=O)[C@H](CCCNC(=N)N)NC(=O)[C@@H](N)[C@@H](C)O)C(=O)N[C@@H](CCCNC(=N)N)C(=O)N[C@@H](CCCNC(=N)N)C(=O)N[C@@H](CC(N)=O)C(=O)N[C@@H](CCCNC(=N)N)C(=O)N[C@@H](CCCNC(=N)N)C(=O)N[C@@H](CCCNC(=N)N)C(=O)N[C@@H](CCCNC(=N)N)C(=O)N[C@@H](Cc1c[nH]c2ccccc12)C(=O)N[C@@H](CCCNC(=N)N)C(=O)N[C@@H](CCC(=O)O)C(=O)N[C@@H](CCCNC(=N)N)C(=O)N[C@@H](CCC(N)=O)C(=O)N[C@@H](CCCNC(=N)N)C(=O)O [Peptide I] (H-TRQARRNRRRRWRERQR-OH) | 3 | 2 | 0.1 | – | binds only slightly better to wild-type IIB than to the mutant RNA; also recorded: essentially unable to discriminate between wild-type and mutant RNAs | mostly unstructured | – | – | –
4 | C[C@H](NC(=O)[C@H](CCC(N)=O)NC(=O)[C@H](CCCNC(=N)N)NC(=O)[C@@H](N)[C@@H](C)O)C(=O)N[C@@H](CCCNC(=N)N)C(=O)N[C@@H](CCCNC(=N)N)C(=O)N[C@@H](CC(N)=O)C(=O)N[C@@H](CCCNC(=N)N)C(=O)N[C@@H](CCCNC(=N)N)C(=O)N[C@@H](CCCNC(=N)N)C(=O)N[C@@H](CCCNC(=N)N)C(=O)N[C@@H](Cc1c[nH]c2ccccc12)C(=O)N[C@@H](CCCNC(=N)N)C(=O)N[C@@H](CCC(=O)O)C(=O)N[C@@H](CCCNC(=N)N)C(=O)N[C@@H](CCC(N)=O)C(=O)N[C@@H](CCCNC(=N)N)C(N)=O [Rev34-50] (H-TRQARRNRRRRWRERQR-NH2) | – | – | – | – | – | – | about 10 fold | about 10 fold | about 10 fold
